Data on eight compounds can be found in patent publication US9486502B2, “Methods of administering interferon gamma to absorb fluid from the subretinal space” (The United States of America, as represented by the …, priority 2008, dated 2016).

Counter-ions that a name gives are not always drawn.

In test [1] the test system is hfRPE monolayers. In words: fluid transport (JV, TEP, RT) across hfRPE monolayers in modified Üssing chamber. Format: cell-based, human. An excerpt:
Confluent monolayers of hfRPE cultured on transwells were mounted in a modified Üssing chamber and transepithelial water flow measurements (JV) were made with a capacitance probe technique as described previously in Maminishkis, A., et al., Invest Ophthalmol Vis Sci, 2006, 47, 3612-3624; Shi, G., et al., Invest Ophthalmol Vis Sci, 2008, 49, 4620-4630; Edelman, J. L., et al., Invest Ophthalmol Vis Sci, 1991, 32, 3033-3040; Jiang, C., et al., Science, 1993, 262, 424-427; and Maminishkis, A., et al., Invest Ophthalmol Vis Sci, 2002, 43, 3555-3566, each incorporated herein by reference in its entirety.
Tissue viability was ascertained by recording transepithelial potential (TEP) and total tissue resistance (RT). It should be noted that the solution composition changes in this chamber were relatively slow (≈1-2 chamber volumes per minute) and the data sampling rate was once per minute, more than two orders of magnitude slower than the sampling rate in the electrophysiology chamber (see below). Therefore it was not possible to record fast changes, in seconds or minutes, in JV, TEP, or RT. After addition of IFNγ to the apical or basal baths, steady-state JV, TEP, and RT were recorded for 20-30 minutes. In control experiments, successive additions of IFNγ were made to test for the repeatability and reversibility of responses. To block IFNγ effects, RPE cells were incubated for 30-60 minutes with a blocking antibody against IFNγ R1, JAK inhibitor I, PKA inhibitors (H-89, EMD Biosciences; RP-8-Br-cAMPS, Sigma-Aldrich), nitric oxide synthase inhibitor (aminoguanidine hydrochloride, Sigma-Aldrich), P38 MAPK inhibitors (SB203580 or SB20290), or CHX. Other components of this signaling pathway were studied using P38 MAPK inhibitors (SB203580 and SB202190). Relatively specific Cl channel inhibitors, CFTRinh-172 or DIDS (EMD Biosciences, La Jolla, Calif.), were used to block cAMP or Ca^2+-activated Cl channels; experiments with CFTRinh-172 were performed as described in Muanprasat, C., et al., J Gen Physiol, 2004, 124, 125-137, incorporated herein by reference in its entirety. In chronic experiments, paired hfRPE tissues with matched RT values were incubated for 4-24 hours with IFNγ or CHX. The subsequent changes in JV, RT, and TEP were measured in Ringer's solution or serum free cell culture media as previously described in Shi, G., et al., Invest Ophthalmol Vis Sci, 2008 and Maminishkis, A., et al., Invest Ophthalmol Vis Sci, 2006, 47, 3612-3624, each incorporated herein by reference in its entirety. Intracellular levels of NO were elevated with 1-Hydroxy-2-oxo-3-(3-aminopropyl)-3-isopropyl-1-triazene (NOC-5, Enzo Life Sciences, Plymouth, Pa.). 8-Br-cGMP was purchased from Sigma-Aldrich.

In test [2] the test system is hfRPE cells. The test can be described thus: immunoblotting of JAK-STAT / MAP kinase signalling proteins in hfRPE. In kind it is cell-based, human. Particulars: 4 hours. How it is done:
Immunoblotting was performed as previously described in Li, R. et al., 2007, Invest Ophthalmol Vis Sci, 48, 5722-5732, incorporated by reference in its entirety herein. Primary cultures of hfRPE and native human adult RPE cells were lysed using RIPA buffer (Sigma-Aldrich) supplemented with proteinase inhibitor cocktail (Roche). Total protein in the supernatant was measured (BCA™ protein assay, Pierce Biotechnology) and 20 µg of protein from cell lysate supernatants was electrophoresed on a 4-12% gradient Bis-Tris NuPAGE gel (Invitrogen) under reduced or non-reduced conditions. Resolved proteins were transferred to nitrocellulose membranes (membranes and XCell II™ Blot Module, Invitrogen).
The membranes were incubated with mouse anti-human IFNγ R1 monoclonal antibody (R&D Systems), anti-human IFNγ R2 (Santa Cruz Biotechnology), anti-human IFNAR1, anti-human IFNAR2 (Abcam), anti-IRF1, anti-IRF2, anti-IRF8 (Santa Cruz Biotechnology) or anti-CFTR antibody 217 (Cystic Fibrosis Foundation Therapeutics Inc., Bethesda, Md.), after blocking non-specific binding ((StartingBlock™ T20 (TBS), Pierce Biotechnology). Membranes were then incubated with horseradish peroxidase (HRP) conjugated secondary antibody (Pierce Biotechnology) and visualized using Supersignal® West Dura Extended Duration Substrate (Pierce Biotechnology) and imaged using an Autochemie™ system (UVP, Upland, Calif.). The antibody-specific bands for IRF-1, IRF-2, ICSBP (IRF-8) and GAPDH were around 91 kDa, […], respectively.
For phosphorylation studies, cells were starved for 24 hours in serum-free medium (“SFM,” MEM-α modification medium containing non-essential amino acids and Glutamine-Penicillin-Streptomycin). Cells were treated with IFNγ (5-50 ng/ml) in SFM at various time points at 37° C. and lysed with RIPA buffer supplemented with proteinase inhibitor cocktail (Roche) and Halt™ phosphatase inhibitor cocktail (Pierce Biotechnology). 40 μg of protein was electrophoresed. As in the immunoblotting experiments described above, except that the membranes were incubated with anti-phospho-p38 MAP kinase (Thr180/Tyr182), anti-p38 MAP kinase, anti-phospho-Stat1 (Tyr701), anti-phospho-Stat1 (Ser727) or anti-Stat1 antibodies, respectively (each from Cell signaling Technology, Danvers, Mass.). The antibody-specific bands for STAT1/phospho-STAT1 (Tyr701) were around 84 kDa. GAPDH was blotted together with anti-GAPDH antibody (Abcam) and used as loading control. Cyclohexamide (“CHX”; Sigma-Aldrich), a protein synthesis inhibitor, was used at 62 μM.
For CFTR immunoblotting analysis, confluent monolayers of hfRPE were homogenized on ice in isolation solution (250 mM Sucrose, 10 mM Tris-HCl, 10 mM MgCl2, 1 mM CaCl2, pH 7.4) supplemented with Halt™ protease inhibitor cocktail, EDTA-free. Nuclei and intact cells were removed with centrifugation (900×g for 10 minutes at 4° C., followed by centrifugation at 10,000×g for 5 minutes). Crude plasma membrane proteins were collected after centrifugation at 100,000×g for 1 hour at 4° C.

The mark [3] stands for this setting: H-89 40 μM pre-treatment 30 minutes.
[4] abbreviates: SB203580 pretreatment ≧30 minutes, n=6.

Consider `Nc1nc2c(nc(Br)n2[C@@H]2O[C@@H]3COP(=O)(O)O[C@H]3[C@H]2O)c(=O)[nH]1` [8-Br-cGMP], for which the “JV after 8-Br-cGMP” value in test [1] (100 μM both baths, FIG. 21, from 6.0) was determined as 19.5 μl·cm^−2·hr^−1. The “Jv after 8-Br-cGMP” value in test [1] (four experiments, from 7.4±1.1) is listed as 15.8±1.6 μl·cm^−2·hr^−1.

Regarding `C[C@@H]1C[C@@H]([C@H](O)CC2CC(=O)NC(=O)C2)C(=O)[C@@H](C)C1` [CHX, cycloheximide], in test [1] (62 μM, apical and basal, 30 minutes), the “effect of CHX per se on JV” value was “no apparent change”. For the same compound, the “IFNγ-induced JV increase after CHX pre-treatment” value in test [1] (4 hours of pre-treatment with CHX) is reported as “no IFNγ-induced JV increase”. For the same compound, in test [1] (CHX 62 μM 30 minutes), the “effect on ability of CFTRinh−172 to block IFNγ-induced JV increase” value is listed as “did not affect”. Further, in test [1] (CHX 62 μM 30 minutes before IFNγ 5 ng/ml), the “effect on IFNγ-induced increase in JV” value is given as “no effect”. Also, the “JV after IFNγ and CHX” value in test [1] (IFNγ 5 ng/ml + CHX 62 μM, 24 hours, IFNγ alone 15.9, FIG. 14I) worked out at 8.8 μl·cm^−2·hr^−1. For the same compound, the “JV after IFNγ and CHX” value in test [1] (another experiment, IFNγ alone 14.9) is reported as 9.8 μl·cm^−2·hr^−1. In addition, in test [2] (CHX 62 μM, with IFNγ), the “effect on IRF-2 protein” value is “no effect” and the “effect on de novo synthesis of IRF-1” value is recorded as “completely blocked”. In addition, the “effect on STAT1 synthesis” value in test [2] (cycloheximide with IFNγ) is listed as “partly inhibited”.

Regarding `O=S(=O)(O)c1cc(N=C=S)ccc1C=Cc1ccc(N=C=S)cc1S(=O)(=O)O` [DIDS], the “effect on spontaneous steady-state JV” value in test [1] (DIDS 500 μM, n=2) is reported as “no effect”. The “effect on JV following CFTRinh−172 inhibition of IFNγ-induced JV” value in test [1] (DIDS, n=2) is “no further inhibition”. Further, the “effect on IFNγ-induced JV increase” value in test [1] (basal DIDS) is given as “not affected”.

`O=S(=O)(NCCNC/C=C/c1ccc(Br)cc1)c1cccc2cnccc12` [H-89]: the “effect on IFNγ stimulated JV increase” value in test [1] (H-89 40 μM after IFNγ) was “significantly blocked”. The “JV after H-89 added to IFNγ-stimulated hfRPE” value in test [1] (H-89 40 μM both sides, from 20.1±0.2) is reported as 8.3±1.3 μl·cm^−2·hr^−1. In addition, in test [1] (setting [3]), the “effect on baseline level of JV” value was “no significant effect” and the “effect on the effect of IFNγ” value is listed as “completely blocked”. The “JV after H-89” value in test [1] (four experiments, steady-state baseline 12.8±5.2) is on record as 12.9±3.7 μl·cm^−2·hr^−1.

As to `CC(C)N(CCCN)[N+]([O-])=NO` [NOC-5, 1-Hydroxy-2-oxo-3-(3-aminopropyl)-3-isopropyl-1-triazene], in test [1] (NOC-5 apical and basal baths, n=3), the “effect on JV” value is “more than doubled”.

Take `Oc1ccc(-c2nc(-c3ccncc3)c(-c3ccc(F)cc3)[nH]2)cc1` [SB202190]: the “block of IFNγ stimulated fluid transport” value in test [1] (SB202190 1-5 μM) is on record as “approximately 46%”.

Consider `C[S+]([O-])c1ccc(-c2nc(-c3ccncc3)c(-c3ccc(F)cc3)[nH]2)cc1` (centres unmarked) [SB203580], for which, in test [1] (SB203580 5 μM), the “decrease of IFNγ-induced JV” value is listed as “approximately 62%”. The “effect on IFNγ induced JV” value in test [1] (SB 203580 5 μM apical and basal after IFNγ 5 ng/mL, n=9) was “decreased”. In addition, the “effect on JV following inhibition by basal bath CFTRinh−172” value in test [1] (SB203580, n=3) is listed as “no further effect”. In test [1] (setting [4]), the “effect on baseline level of JV” value is listed as “no significant effect” and the “effect on the effect of IFNγ” value was “completely blocked”.

On to `N=C(N)NN` [aminoguanidine hydrochloride], for which the “effect on IFNγ induced increase in Jv” value in test [1] (iNOS inhibitor 100 μM applied after IFNγ 5 ng/ml, n=3, hydrochloride) is reported as “blocks”; in test [1] (iNOS inhibitor 100 μM applied after IFNγ 5 ng/ml, n=3, listed as aminoguandidie hydrochloride, hydrochloride), “block”; in test [1] (pre-treatment with iNOS inhibitor, n=3) it was “completely blocked”.
